Measured values taken from paper PMC6458995, “MAP4K4 Inhibition Promotes Survival of Human Stem Cell-Derived Cardiomyocytes and Reduces Infarct Size In Vivo” (Cell Stem Cell, 2019).

Columns and labels:
Assay in all cases: Dundee kinase panel
Format in all cases: biochemical
Settings in all cases: for remaining activity at 1 µM: read-out: residual activity
MAPKAP-K2 = target: T1, MAPKAP-K2 (Homo sapiens, UniProt P49137)
T1 construct: lines 1-140) and Reaction Biology
Protocol: (§1) Compounds were screened at 1 μM. For key hits, pIC50 values were then determined by HTRF as above. […] Stability in mouse and human liver microsomes was determined by Cyprotex.

HER4 = target: T2, HER4 (Homo sapiens, UniProt Q15303)
T2 construct: lines 1-140) and Reaction Biology
Protocol: as §1

ULK1 = target: T3, ULK1 (Homo sapiens, UniProt O75385)
T3 construct: lines 1-140) and Reaction Biology
T3 sequence (O75385 1-1050): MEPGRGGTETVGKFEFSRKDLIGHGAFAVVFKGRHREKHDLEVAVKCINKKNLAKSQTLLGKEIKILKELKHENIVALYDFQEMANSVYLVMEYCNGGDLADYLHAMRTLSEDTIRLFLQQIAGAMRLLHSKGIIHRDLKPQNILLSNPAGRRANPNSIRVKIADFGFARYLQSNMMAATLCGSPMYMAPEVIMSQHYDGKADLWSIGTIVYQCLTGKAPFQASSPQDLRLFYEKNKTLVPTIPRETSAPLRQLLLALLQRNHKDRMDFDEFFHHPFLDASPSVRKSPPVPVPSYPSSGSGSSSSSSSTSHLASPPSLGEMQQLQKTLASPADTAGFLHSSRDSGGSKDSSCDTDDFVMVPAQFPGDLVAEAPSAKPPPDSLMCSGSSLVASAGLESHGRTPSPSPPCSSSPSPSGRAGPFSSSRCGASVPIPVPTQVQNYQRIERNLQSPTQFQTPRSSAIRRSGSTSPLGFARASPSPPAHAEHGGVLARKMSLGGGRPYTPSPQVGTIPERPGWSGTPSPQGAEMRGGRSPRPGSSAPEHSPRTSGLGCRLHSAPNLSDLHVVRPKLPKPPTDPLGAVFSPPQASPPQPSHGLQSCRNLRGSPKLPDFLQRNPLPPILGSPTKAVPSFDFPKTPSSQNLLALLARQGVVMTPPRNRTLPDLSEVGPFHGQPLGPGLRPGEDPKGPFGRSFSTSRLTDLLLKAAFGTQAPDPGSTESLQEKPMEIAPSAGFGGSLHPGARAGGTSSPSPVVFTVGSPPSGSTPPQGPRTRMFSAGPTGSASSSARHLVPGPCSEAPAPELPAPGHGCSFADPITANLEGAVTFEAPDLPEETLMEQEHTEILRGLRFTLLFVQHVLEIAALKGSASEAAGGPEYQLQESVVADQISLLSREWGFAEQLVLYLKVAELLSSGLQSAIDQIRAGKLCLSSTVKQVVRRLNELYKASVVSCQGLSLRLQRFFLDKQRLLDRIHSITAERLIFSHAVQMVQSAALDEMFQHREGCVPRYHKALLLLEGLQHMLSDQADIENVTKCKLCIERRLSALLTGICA
Protocol: as §1

ZAP70 = target: T4, ZAP70 (Homo sapiens, UniProt P43403)
T4 construct: lines 1-140) and Reaction Biology
T4 sequence (P43403 1-619): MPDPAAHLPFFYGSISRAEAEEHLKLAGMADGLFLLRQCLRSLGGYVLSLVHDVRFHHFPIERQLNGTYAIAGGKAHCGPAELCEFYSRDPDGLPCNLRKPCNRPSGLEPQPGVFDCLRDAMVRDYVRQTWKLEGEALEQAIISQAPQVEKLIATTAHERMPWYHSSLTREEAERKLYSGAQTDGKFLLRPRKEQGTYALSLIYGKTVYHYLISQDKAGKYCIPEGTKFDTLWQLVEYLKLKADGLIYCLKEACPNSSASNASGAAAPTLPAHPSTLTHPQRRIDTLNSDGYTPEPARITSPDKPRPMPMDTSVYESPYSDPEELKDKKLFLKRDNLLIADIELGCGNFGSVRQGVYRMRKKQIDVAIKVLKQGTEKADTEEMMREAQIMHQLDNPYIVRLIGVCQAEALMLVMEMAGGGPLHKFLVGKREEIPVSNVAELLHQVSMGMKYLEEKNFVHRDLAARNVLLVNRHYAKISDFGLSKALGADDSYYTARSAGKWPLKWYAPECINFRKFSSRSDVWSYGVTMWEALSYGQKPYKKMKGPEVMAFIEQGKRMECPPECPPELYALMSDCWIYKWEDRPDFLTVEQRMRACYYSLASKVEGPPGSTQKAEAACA
Protocol: as §1

LKB1 = target: T5, LKB1 (Homo sapiens, UniProt Q15831)
T5 construct: lines 1-140) and Reaction Biology
T5 sequence (Q15831 1-433): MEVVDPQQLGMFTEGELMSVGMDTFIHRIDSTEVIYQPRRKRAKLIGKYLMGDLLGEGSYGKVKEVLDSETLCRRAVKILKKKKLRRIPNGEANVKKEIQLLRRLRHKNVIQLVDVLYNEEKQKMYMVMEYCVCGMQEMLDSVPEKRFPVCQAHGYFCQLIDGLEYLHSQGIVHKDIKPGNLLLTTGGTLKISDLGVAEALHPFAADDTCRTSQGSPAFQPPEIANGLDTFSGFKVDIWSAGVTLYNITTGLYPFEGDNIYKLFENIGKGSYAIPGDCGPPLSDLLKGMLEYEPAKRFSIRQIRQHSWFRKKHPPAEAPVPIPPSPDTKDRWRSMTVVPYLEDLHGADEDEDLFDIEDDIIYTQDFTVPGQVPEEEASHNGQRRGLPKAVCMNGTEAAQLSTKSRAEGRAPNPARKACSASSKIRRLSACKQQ
T5 sequence (Q7RTN6 1-431 partner): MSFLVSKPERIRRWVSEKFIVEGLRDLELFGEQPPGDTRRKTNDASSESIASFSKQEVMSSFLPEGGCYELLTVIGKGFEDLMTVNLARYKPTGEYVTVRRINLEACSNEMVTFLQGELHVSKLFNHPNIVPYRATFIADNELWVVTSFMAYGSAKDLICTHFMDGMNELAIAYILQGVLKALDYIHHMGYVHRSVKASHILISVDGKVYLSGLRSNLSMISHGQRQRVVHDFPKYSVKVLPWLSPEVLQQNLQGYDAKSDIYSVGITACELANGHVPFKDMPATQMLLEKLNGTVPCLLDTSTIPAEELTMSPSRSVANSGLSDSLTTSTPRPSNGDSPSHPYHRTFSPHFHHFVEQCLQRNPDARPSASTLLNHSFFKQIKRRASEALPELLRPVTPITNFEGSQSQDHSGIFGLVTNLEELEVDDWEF
T5 sequence (Q9Y376 1-341 partner): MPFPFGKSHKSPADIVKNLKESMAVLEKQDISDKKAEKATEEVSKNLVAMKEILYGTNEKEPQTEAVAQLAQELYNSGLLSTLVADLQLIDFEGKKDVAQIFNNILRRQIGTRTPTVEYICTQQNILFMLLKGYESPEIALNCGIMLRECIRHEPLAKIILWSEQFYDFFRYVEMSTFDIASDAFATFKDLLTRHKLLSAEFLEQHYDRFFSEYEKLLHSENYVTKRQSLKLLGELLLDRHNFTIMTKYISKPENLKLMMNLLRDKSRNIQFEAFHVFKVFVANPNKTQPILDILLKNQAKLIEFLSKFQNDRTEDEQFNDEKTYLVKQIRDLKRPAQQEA
Protocol: as §1

T2 sequence (Q15303 26-1308): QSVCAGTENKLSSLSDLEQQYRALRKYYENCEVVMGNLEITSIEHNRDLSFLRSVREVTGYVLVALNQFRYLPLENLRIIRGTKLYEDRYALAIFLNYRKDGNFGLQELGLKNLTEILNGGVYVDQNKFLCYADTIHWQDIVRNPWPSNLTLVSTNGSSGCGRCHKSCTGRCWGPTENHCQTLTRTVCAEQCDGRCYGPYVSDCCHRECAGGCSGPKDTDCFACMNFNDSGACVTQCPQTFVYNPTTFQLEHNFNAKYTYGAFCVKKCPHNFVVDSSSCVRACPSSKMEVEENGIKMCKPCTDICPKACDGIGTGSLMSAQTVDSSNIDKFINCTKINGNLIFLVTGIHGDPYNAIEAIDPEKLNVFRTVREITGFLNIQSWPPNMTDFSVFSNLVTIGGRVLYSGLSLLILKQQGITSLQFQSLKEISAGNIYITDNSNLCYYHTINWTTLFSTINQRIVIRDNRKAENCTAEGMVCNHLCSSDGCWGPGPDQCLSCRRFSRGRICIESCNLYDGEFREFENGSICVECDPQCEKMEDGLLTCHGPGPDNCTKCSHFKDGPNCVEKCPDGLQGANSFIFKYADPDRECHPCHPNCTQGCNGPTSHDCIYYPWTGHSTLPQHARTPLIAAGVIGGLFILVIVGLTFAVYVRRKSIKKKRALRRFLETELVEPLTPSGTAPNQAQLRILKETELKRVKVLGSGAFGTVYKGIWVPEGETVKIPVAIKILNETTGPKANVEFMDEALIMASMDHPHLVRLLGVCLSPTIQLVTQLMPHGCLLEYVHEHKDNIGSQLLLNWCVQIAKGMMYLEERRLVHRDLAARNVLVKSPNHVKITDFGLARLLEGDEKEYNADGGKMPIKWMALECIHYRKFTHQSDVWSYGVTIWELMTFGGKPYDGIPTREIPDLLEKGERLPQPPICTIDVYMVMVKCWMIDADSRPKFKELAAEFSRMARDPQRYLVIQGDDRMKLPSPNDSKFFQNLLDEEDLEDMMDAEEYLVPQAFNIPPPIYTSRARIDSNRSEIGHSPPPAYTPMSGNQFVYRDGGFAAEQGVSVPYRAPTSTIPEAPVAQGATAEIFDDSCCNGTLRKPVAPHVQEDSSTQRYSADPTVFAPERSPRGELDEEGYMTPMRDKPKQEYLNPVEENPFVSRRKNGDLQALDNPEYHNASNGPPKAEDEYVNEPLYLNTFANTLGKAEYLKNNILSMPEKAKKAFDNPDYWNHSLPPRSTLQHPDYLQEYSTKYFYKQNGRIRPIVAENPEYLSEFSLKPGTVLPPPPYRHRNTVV
T1 sequence (P49137 whole entry): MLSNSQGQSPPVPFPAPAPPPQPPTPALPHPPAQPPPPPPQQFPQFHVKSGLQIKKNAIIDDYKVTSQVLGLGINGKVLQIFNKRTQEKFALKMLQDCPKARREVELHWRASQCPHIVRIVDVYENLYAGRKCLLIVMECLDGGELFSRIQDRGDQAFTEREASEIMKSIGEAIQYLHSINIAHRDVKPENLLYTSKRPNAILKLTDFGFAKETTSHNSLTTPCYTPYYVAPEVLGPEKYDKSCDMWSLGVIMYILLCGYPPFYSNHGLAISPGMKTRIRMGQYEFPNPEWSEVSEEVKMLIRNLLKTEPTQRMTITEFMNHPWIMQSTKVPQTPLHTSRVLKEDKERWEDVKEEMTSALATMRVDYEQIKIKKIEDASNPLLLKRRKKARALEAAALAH

SMILES	remaining activity at 1 µM (MAPKAP-K2)	remaining activity at 1 µM (HER4)	remaining activity at 1 µM (ULK1)	remaining activity at 1 µM (ZAP70)	remaining activity at 1 µM (LKB1)	residual activity (MAPKAP-K2; 1 μM)	residual activity (HER4; 1 μM)	residual activity (ULK1; 1 μM)	residual activity (ZAP70; 1 μM)	residual activity (LKB1; 1 μM)
O=C1Cc2c([nH]c3ccc(Br)cc23)-c2ccccc2N1 [Kenpaullone]	89%	85%	107%	59%	89%					
O=C1Nc2ccc(I)cc2/C1=C/c1cc(Br)c(O)c(Br)c1 [GW5074]	81%	68%	97%	98%	68%					
Nc1ncc(C(=O)NC2CN(C(=O)C3CC3)C2)c2ccc(-c3cccc(F)c3)nc12 [GNE-495]						101%	98%	110%	109%	87%
Oc1ncnc2c1c(-c1ccccc1)cn2-c1ccccc1 [F1386-0303, 5,7-diphenyl-7H-pyrrolo[2,3-d]pyrimidin-4-ol]	101%	82%	84%	114%	96%					
COCCOc1ccc(-c2cn(-c3ccccc3)c3nc[nH]c(=O)c23)cc1 [DMX-5804, 5-[4-(2-methoxy-ethoxy)-phenyl]-7-phenyl-3,7-dihydro-pyrrolo[2,3-d]pyrimidin-4-one]	105%	106%	82%	94%	105%					
